By pIC50 is commonly meant −log10 of the IC50, conventionally taken in molar units. By melting point is commonly meant the temperature, or range, at which the solid turns liquid.

pIC50: −log10 of the molar value.

One data set concerns the target U937 Phosphodiesterase IV (PDE IV). Briefly: Inhibition of U937 Phosphodiesterase IV (PDE IV). The format is biochemical. The following applies: enzyme preparation from U937 cells, [3H]cAMP SPA assay, CI-930 10 μM added, 30° C. 15 minutes; read-out: IC50, inhibitory activity on PDE-IV. The method, then:
(a) Inhibition of U937 Phosphodiesterase IV (PDE IV)
Cultured U937 cells were washed twice and harvested with phosphate-buffered saline (PBS) by cell-scraper. After centrifugation, the cell pellet was suspended in homogenizing buffer (0.5% deoxycholate [DOC], 5 mM 2-mercaptoethanol, 1 μM leupeptin, 100 μM PMSF, 20 μM p-tosyl-L-lysine-chloromethyl ketone [TLCK] in PBS). The cell suspension was then sonicated for a couple of minutes and homogenized by a glass-Teflon homogenizer with twenty strokes. The homogenate was centrifuged at 200 g for 30 minutes, and the supernatant was further ultra-centrifuged at 100,000×g for 90 minutes (4° C.). […]
PDE4, activity was estimated with a Phosphodiesterase [^3H]cAMP SPA Enzyme Assay System (Amersham Pharmacia Biotech), using a 96 well Opti-plate. […] Radio-activity in each well was counted by a Top Counter. […]
IC50 values of test compounds for the enzyme activity of PDE4 was determined from regression analysis for log-logit conversion values of percent inhibition in the compound-treated tubes compared to that of the control. Percent inhibition was calculated with the following equation: Inhibition (%)={1−(C−B)/(A−B)}×100; in which A, B and C means mean values of radio-activity counts (dpm) of control, blank and the compound-treated tubes, respectively.
For `CCc1ccc2c(-c3ccc(C(N)=O)cc3)c(CCCCCC(=O)O)c(C)nn12` [Example 198, 6-{4-[4-(Aminocarbonyl)phenyl]-7-ethyl-2-methylpyrrolo[1,2-b]pyridazin-3-yl}hexanoic acid], the pIC50 was > 6.00.

Test system in another data set: not given
Assay: not given
Details: not given
Consider `CCc1ccc2c(-c3cncc(OC)c3)c(CCC(=O)O)c(COC)nn12` [Example 498, 3-[7-ethyl-2-(methoxymethyl)-4-(5-methoxy-3-pyridinyl)pyrrolo[1,2-b]pyridazin-3-yl]propanoic acid], for which the melting point was 164 to 165 °C. The same measure, in the same setting: to `CCc1ccc2c(-c3cccc(C#N)c3)c(CCCCC(=O)N3CCOCC3)c(-c3ccccc3)nn12` [Example 282, 3-{7-Ethyl-3-[5-(4-morpholinyl)-5-oxopentyl]-2-phenylpyrrolo[1,2-b]pyridazin-4-yl}benzonitrile] belongs 66 to 69 °C; to `CCc1ccc2c(-c3cncc(Br)c3)c(CCC(=O)NC)c(C)nn12` [Example 389, 3-[4-(5-bromo-3-pyridinyl)-7-ethyl-2-methylpyrrolo[1,2-b]pyridazin-3-yl]-N-methylpropanamide], 172 to 174 °C.

The molecule `CCc1ccc2c(-c3cccc(Cl)c3)c(C#N)c(-c3ccccc3)nn12` [Example 7, 4-(3-Chlorophenyl)-7-ethyl-2-phenylpyrrolo[1,2-b]pyridazine-3-carbonitrile] yielded a melting point of 172 to 173 °C.

Take `CCc1ccc2c(-c3cncc(Br)c3)c(C(=O)OC)c(COC(C)=O)nn12` [Example 429, methyl 2-[(acetyloxy)methyl]-4-(5-bromo-3-pyridinyl)-7-ethylpyrrolo[1,2-b]pyridazine-3-carboxylate]: the melting point is 122 to 123 °C. Same read-out and setting: for `CCc1ccc2c(-c3cncc(OC)c3)c(CCCC(=O)O)c(COC)nn12` [Example 499, 4-[7-ethyl-2-(methoxymethyl)-4-(5-methoxy-3-pyridinyl)pyrrolo[1,2-b]pyridazin-3-yl]butanoic acid] the value was 140 to 141 °C.

The molecule `CCc1ccc2c(-c3cccc(C#N)c3)c(CCCCC(=O)Nc3ccccn3)c(-c3ccccc3)nn12` [Example 263, 5-[4-(3-Cyanophenyl)-7-ethyl-2-phenylpyrrolo[1,2-b]pyridazin-3-yl]-N-(2-pyridinyl)pentanamide] returned a melting point of 67 to 70 °C. For `CCOC(=O)CC(=O)Cc1c(C)nn2c(Cl)ccc2c1-c1ccc(F)cc1` [Example 192, Ethyl 4-[7-chloro-4-(4-fluorophenyl)-2-methylpyrrolo[1,2-b]pyridazin-3-yl]-3-oxobutanoate], the melting point fell in the range of 116 to 118 °C. Same read-out and setting: for `CCc1ccc2c(-c3cccc(Cl)c3)c(CCCCC(=O)NC)c(-c3ccccc3)nn12` [Example 280, 5-[4-(3-Chlorophenyl)-7-ethyl-2-phenylpyrrolo[1,2-b]pyridazin-3-yl]-N-methylpentanamide] the value was 70 to 72 °C; for `CCc1ccc2c(-c3cncc(OC)c3)c(CCCCC(=O)O)c(COC)nn12` [Example 496, 5-[7-ethyl-2-(methoxymethyl)-4-(5-methoxy-3-pyridinyl)pyrrolo[1,2-b]pyridazin-3-yl]pentanoic acid], 111 to 112 °C; for `CCc1ccc2c(-c3cccc(Cl)c3)c(CCCCC(=O)N3CCOCC3)c(-c3ccccc3)nn12` [Example 279, 4-(3-Chlorophenyl)-7-ethyl-3-[5-(4-morpholinyl)-5-oxopentyl]-2-phenylpyrrolo[1,2-b]pyridazine], 55 to 58 °C. On the same count and under the same terms, to `CCc1ccc2c(-c3cncc(Cl)c3)c(CCCCC(=O)O)c(COC)nn12` [Example 503, 5-[4-(5-chloro-3-pyridinyl)-7-ethyl-2-(methoxymethyl)pyrrolo[1,2-b]pyridazin-3-yl]pentanoic acid] belongs 118 to 119 °C; to `CCc1ccc2c(-c3cccc(C#N)c3)c(CCCCC(=O)NC)c(-c3ccccc3)nn12` [Example 278, 5-[4-(3-Cyanophenyl)-7-ethyl-2-phenylpyrrolo[1,2-b]pyridazin-3-yl]-N-methylpentanamide], 60 °C; to `CCc1ccc2c(-c3cncc(Cl)c3)c(CCC(=O)O)c(COC)nn12` [Example 502, 3-[4-(5-chloro-3-pyridinyl)-7-ethyl-2-(methoxymethyl)pyrrolo[1,2-b]pyridazin-3-yl]propanoic acid], 159 to 160 °C. The same measure, in the same setting: for `CCc1ccc2c(-c3cncc(Br)c3)c(CCCCC(=O)NS(C)(=O)=O)c(C)nn12` [Example 267, N-{5-[4-(5-Bromo-3-pyridinyl)-7-ethyl-2-methylpyrrolo[1,2-b]pyridazin-3-yl]pentanoyl}methanesulfonamide] the value was 124 to 125 °C; for `CCc1ccc2c(-c3ccnc(Cl)c3)c(CCCCC(=O)O)c(C)nn12` [Example 94, 5-[4-(2-Chloro-4-pyridinyl)-7-ethyl-2-methylpyrrolo[1,2-b]pyridazin-3-yl]pentanoic acid], 139 to 140 °C. Take `CCc1ccc2c(-c3cncc(Br)c3)c(CCC(=O)NS(C)(=O)=O)c(C)nn12` [Example 390, N-{3-[4-(5-bromo-3-pyridinyl)-7-ethyl-2-methylpyrrolo[1,2-b]pyridazin-3-yl]propanoyl}methanesulfonamide]: the melting point was 196.5 to 197.5 °C. Same read-out and setting: to `CCc1ccc2c(-c3cncc(Cl)c3)c(CCCC(=O)O)c(COC)nn12` [Example 501, 4-[4-(5-chloro-3-pyridinyl)-7-ethyl-2-(methoxymethyl)pyrrolo[1,2-b]pyridazin-3-yl]butanoic acid] belongs 112 to 113 °C; to `CCc1ccc2c(-c3cccc(C#N)c3)c3c(nn12)CCC3=O` [Example 10, 3-(6-Ethyl-1-oxo-2,3-dihydro-1H-cyclopenta[e]pyrrolo[1,2-b]pyridazin-9-yl)benzonitrile], 150 to 154 °C; to `CCc1ccc2c(-c3cncc(Br)c3)c(CCC(=O)O)c(C)nn12` [Example 135, 3-[4-(5-Bromo-3-pyridinyl)-7-ethyl-2-methylpyrrolo[1,2-b]pyridazin-3-yl]propanoic acid], 181 to 182 °C. As to `CCc1ccc2c(-c3cncc(Br)c3)c(CCC(=O)N3CCOCC3)c(C)nn12` [Example 388, 4-(5-bromo-3-pyridinyl)-7-ethyl-2-methyl-3-[3-(4-morpholinyl)-3-oxopropyl]pyrrolo[1,2-b]pyridazine], the melting point was in the range of 178 to 180 °C.

The test system of a further data set is TNF-alpha production in LPS stimulated human peripheral blood mononuclear cells (PBMCs). Briefly: Inhibition on TNF-alpha Production in Human Mononuclear Cells. The format is cell-based. The following applies: PBMC, LPS 1 μg/mL, 24 hours, TNF-alpha by ELISA, read-out: IC50, TNF-alpha production from stimulated PBMCs. The procedure: (b) Inhibition on TNF-alpha Production in Human Mononuclear Cells 1. Test Method (1) Human Peripheral Blood Mononuclear Cells (PBMCs) Preparation
Blood (30 ml for each person) was collected from the median cubital vein of healthy volunteer was divided 15 mL each in heparin containing conical tube and the same volume of RPMI1640 was added to each tube. Diluted blood was then piled up to 20 mL of Ficoll-Paque PLUS (Amersham Pharmacia Biotech) in polystyrene centrifuge tube. After centrifugation at 1,600 rpm for 30 minutes, cells gathering in the center area of the gradient were collected by capillary and washed with 40 mL of RPMI1640 in several times with centrifugation at 1,200 rpm for 10 minutes. PBMC finally precipitated were suspended in RPMI1640 containing 1% fetal bovine serum and antibiotics. After cell counting, final suspension at 3×10^6 cells/mL in culture medium was prepared.
Human PBMCs prepared by the density gradient method using Ficoll-Paque PLUS were suspended in the culture medium mentioned above with the concentration of 3×10^6 cells/mL and 0.5 mL of the suspension was sowed into each well of a 24-well culture plate. Cells were incubated in the CO2 incubator for 24 hours with 0.25 mL of LPS in addition of 0.25 mL of concentrations of drugs or vehicle at the start of the incubation. […] TNF-alpha levels in the medium were measured by ELISA. […]
(In general: An ELISA detects its analyte on a solid surface through an enzyme-linked reagent.)
For `CCc1ccc2c(-c3ccc(C(N)=O)cc3)c(CCCCCC(=O)O)c(C)nn12` [Example 198, 6-{4-[4-(Aminocarbonyl)phenyl]-7-ethyl-2-methylpyrrolo[1,2-b]pyridazin-3-yl}hexanoic acid], the pIC50 is > 7.00.

For the origin of these results see patent publication US7317009B2, “Pyrrolopyridazine derivatives” (Astellas Pharma Inc., priority 2003, dated 2008).
